Converted amounts (≈) assume the structure as drawn. Bounds are passed on as bounds.

This note sets out measurements from patent US6482827B1, “Matrix metalloproteinase inhibitors” (Pharmacia & Upjohn S.p.A., priority 1997, dated 2002).

In series [1] the target is T1, Human gelatinase-A (MMP-2) (Homo sapiens, UniProt P08253).
T1 sequence (P08253 110-660): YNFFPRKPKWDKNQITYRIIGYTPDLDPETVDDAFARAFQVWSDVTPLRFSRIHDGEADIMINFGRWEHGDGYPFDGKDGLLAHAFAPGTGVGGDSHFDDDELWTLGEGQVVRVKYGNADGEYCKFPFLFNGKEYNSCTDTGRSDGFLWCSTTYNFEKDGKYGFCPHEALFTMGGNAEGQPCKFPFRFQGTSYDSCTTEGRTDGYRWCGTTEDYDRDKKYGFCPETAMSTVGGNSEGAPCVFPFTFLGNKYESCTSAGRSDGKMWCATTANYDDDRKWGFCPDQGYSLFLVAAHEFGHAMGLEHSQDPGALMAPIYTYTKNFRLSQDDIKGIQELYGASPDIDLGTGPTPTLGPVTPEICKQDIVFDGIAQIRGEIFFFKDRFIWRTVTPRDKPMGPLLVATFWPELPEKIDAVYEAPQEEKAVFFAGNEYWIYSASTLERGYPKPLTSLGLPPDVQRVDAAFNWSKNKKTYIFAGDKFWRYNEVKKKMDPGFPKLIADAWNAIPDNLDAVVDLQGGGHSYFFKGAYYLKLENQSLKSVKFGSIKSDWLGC
Description: Biochemical assay (Protocol A), Ki at steady state, MMP-2. To be noted: preincubation, 37° C., pH=7.4, read-out: Ki at steady state (Ki*) for inhibition of MMP-2. As to the method:
(§1) Human gelatinase-A (MMP-2) was obtained as pro-enzyme (72 kDa) and was activated with 1 mM 4-aminophenylmercuric acetate for 30 min at 37° C. immediately prior to use. Human stromelysin-1-255 (MMP-3) was obtained as a recombinant pro-enzyme isolated from E. coli and activated by heat (1 h, 55° C.).
(§2) The substrate was the commercial quenched-fluorescence peptide Mca-Pro-Leu-Gly-Leu-Dpa-Ala-Arg-NH2, that is (7-methoxycoumarin4-yl)Acetyl-Pro-Leu-Glv-Leu-(3-[2,4-dinitrophenyl]-L-2,3-diamino-propionyl)-Ala-Arg-NH2 (C. G. Knight et al., FEBS Lett.296:263, 1992). The enzymes cleave at the Gly-Leu bond, removing the internally quenching Dpa group. Release of the highly fluorescent peptide Mca-Pro-Leu was followed fluorimetrically at 37° C. using a Perkin Elmer LS-50 Fluorescence Spectrophotometer fitted with a thermostatted four position stirring cell changer. The excitation wavelength was set at 326 nm (bandwidth 5 nm) and the emission at 392 nm (bandwidth 20 nm). Km values of this substrate for the three MMP's is 70 μM or more (Knight et al., reference above). Substrate concentration was 2 μM in the tests, so that we could approximate to unit the term (1+[substrate]/KM) in calculations. The substrate was stable for over 60 minutes in the assay conditions, giving no appreciable increment of fluorescence. Full response was adjusted against 200 nM Mca-Pro-Leu-OH (the released fluorescent peptide) and the instrument was calibrated in the range 0-100 nM Mca-Pro-Leu-OH, corresponding to 0-5% extent of hydrolysis of the 2 μM substrate. The aqueous assay buffer was 50 mM Tris/HCl pH=7.4 containing 0.15 M NaCl, 10 mM CaCl2, 0.01 mM ZnCl2 and 0.05% Brij 35. The concentration of the activated enzyme was determined by titration against representative inhibitors described in the literature and synthesized in house: Roche Ro31-9790 (N. G. Knebel et al., J. Chromatogr. B 673:213, 1995) for MMP-1, and Celltech CT-1418 (compound 1 in S. K. Chander, J. Pharm. Sci. 84:404, 1995) for MMP-2 and MMP-3. Enzyme concentrations in the tests were set at 1.0 nM for MMP-1, 0.04 nM for MMP-2, and 3.0 nM for M-3. Under our assay conditions, we measured keat/KM values of 26900, 669000 and 9740 1/(M×s) for MMP-1, MMP-2 and MMP-3, respectively. All the three enzymes were found stable for over three hours in the assay conditions.
(§3) The inhibition constant for compounds of the present invention was measured at steady state (Ki*; see J. F. Morrison and C. T. Walsh, Adv. Enzymol. Relat. Areas Mol. Biol. 61:201, 1988), upon preincubation experiment, by measuring V0, the initial rate in the absence of inhibitor, and Vs, the steady-state velocity, at different concentrations of inhibitors in the region of their enzyme-inhibitor dissociation constants.
(§4) On a routine basis, 1.94 mL of assay buffer was pre-heated at 37° C. in a vial, 0.02 mL of inhibitor in DMSO (or DMSO only), and 0.02 ml of 100 nM MMP-1 or 4 nM MMP-2 or 300 nM MMP-3 were added, mixed, and the vial was held at 37° C. for 5-180 minutes. Then 0.02 ml of 0.2 mM substrate was added, mixed and transferred into a pre-heated cell. The sample was allowed to equilibrate in the cuvette for 3-5 min at 37° C. against small changes in temperature and changes in the enzyme-inhibitor equilibria related to addition of substrate. After that, the linear increase of fluorescence was monitored over 3-5 min, and the slope (Vo or Vs) was obtained. Inhibitor concentrations were varied to collect data over Vs/Vo ratio ranging from 0.05 to 0.95. The values of Ki* were calculated by nonlinear weighted regression to the tight-binding equation according to Morrison and Walsh above:
(§5) Vs/Vo=[1/(2×Et)]×SQR[(Ki*+It−Et)^2+4×Ki*×Et]−(Ki*+It−Et)
(§6) wherein Et is the total enzyme concentration, and It is the total inhibitor concentration. The following Table I lists Ki* obtained for some representative examples: […]

The target in series [2] is T2, Human stromelysin-1-255 (MMP-3) (Homo sapiens, UniProt P08254).
T2 construct: host or cells: E. coli
T2 sequence (P08254 100-255 limits assumed): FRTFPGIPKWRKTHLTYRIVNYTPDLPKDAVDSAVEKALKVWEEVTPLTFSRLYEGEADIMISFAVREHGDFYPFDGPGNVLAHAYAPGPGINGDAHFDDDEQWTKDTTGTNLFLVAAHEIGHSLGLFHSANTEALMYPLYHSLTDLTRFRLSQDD
The series can be described thus: Biochemical assay (Protocol A), Ki at steady state, MMP-3. To be noted: preincubation, 37° C., pH=7.4, read-out: Ki at steady state (Ki*) for inhibition of MMP-3. As to the method:
as §1, §2, §3, §4, §5, §6

Another series in a line: Aqueous solubility. Type of series: physicochemical. To be noted: 25° C.; for solubility: water.
Series [3] has as its target T3, Human collagenase (MMP-1) (Homo sapiens, UniProt P03956).
T3 sequence (P03956 101-269): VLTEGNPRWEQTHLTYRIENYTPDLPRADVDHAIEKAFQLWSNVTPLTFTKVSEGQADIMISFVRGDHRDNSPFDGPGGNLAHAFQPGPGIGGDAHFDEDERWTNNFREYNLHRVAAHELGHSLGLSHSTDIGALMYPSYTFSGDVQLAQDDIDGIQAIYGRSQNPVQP
Description: Biochemical assay (Protocol A), Ki at steady state, MMP-1. The following applies: preincubation, 37° C., pH=7.4, read-out: Ki at steady state (Ki*) for inhibition of MMP-1. As to the method: as §1, §2, §3, §4, §5, §6

In general, Ki refers to a dissociation constant, usually derived from enzyme kinetics or from competition with a known ligand. Broadly, the solubility is how much of the substance goes into solution per volume. High values mean a readily soluble substance, low ones a poorly soluble substance. For `CC(C)C[C@@H](C(=O)N1CCCCC1)[C@H](NC(=O)OC(C)(C)C)C(=O)NO` [Example 2, (3S-tert-Butoxycarbonylamino-4-hydroxyamino-2R-isobutyl)succinyl-piperidinamide], the Ki was 2800 nM in series [1], 13000 nM in series [2] and 1100 nM in series [3]. For the same molecule, the solubility in the series “Aqueous solubility” (Conditions A) was more than 4500 µg/mL.
In the same order, the values of `CC(C)C[C@@H](C(=O)N1CCCCC1)[C@H](N)C(=O)NO` [Example 3, (3S-Amino-4-hydroxyamino-2R-isobutyl)succinyl-piperidinamide] are 290 nM, 2500 nM, 88 nM and more than 9500 µg/mL.
`CC(C)C[C@@H](C(=O)N1CCCCC1)[C@@H](C(=O)NO)N(C)C` [Example 5, (3SN,N-Dimethylamino-4-hydroxyamino-2R-isobutyl)succinyl-piperidinamide]: the results for the Ki in series [1], in series [2] and in series [3] were 310 nM, 940 nM and 61 nM, respectively. Also, the solubility in “Aqueous solubility” (Conditions B) was more than 6000 µg/mL.
As to `COc1ccc(S(=O)(=O)N[C@H](C(=O)NO)[C@@H](CC(C)C)C(=O)N2CCCCC2)cc1` [Example 7, (4-Hydroxyamino-3S-(4-methoxyphenylsulfonyl)amino-2R-isobutyl)succinyl-piperidin-amide], the Ki in series [1] was 250 nM; in series [2] it was 720 nM; in series [3] it was 70 nM. This molecule also came in with a solubility in “Aqueous solubility” (Conditions A) of 4000 µg/mL (≈ 9.06 mM).
Usually Aqueous solubility stands for how much of the substance goes into solution per volume. Lower therefore signals little dissolved substance. For `COc1ccc(CCC[C@@H](C(=O)N2CCOCC2)[C@H](NC(=O)OC(C)(C)C)C(=O)O)cc1` [Example 13, (3S-tert-Butoxycarbonylamino-4-hydroxy-2R-(4-methoxy)phenpropyl)succinyl-morpholinamide], the Aqueous solubility in “Aqueous solubility” (Conditions A) turned out to be 6710 µg/mL.
In the case of `COc1ccc(CCC[C@@H](C(=O)N2CCOCC2)[C@H](N)C(=O)O)cc1` [Example 14, (3S-Amino-4-hydroxy-2R-(4-methoxy)phenpropyl)succinyl-morpholinamide], the Aqueous solubility in “Aqueous solubility” (Conditions B) was more than 14000 µg/mL.
`COc1ccc(CCC[C@@H](C(=O)N2CCOCC2)[C@H](N)C(=O)NO)cc1` [Example 16, (3S-Amino-4-hydroxyamino-2R-(4-methoxy)phenpropyl)succinyl-morpholinamide]: the values for the Ki in series [1], in series [2] and in series [3] were 94 nM, 2400 nM and 6400 nM, respectively. The molecule further displayed a solubility in the series “Aqueous solubility” (Conditions B) of more than 9600 µg/mL.
On the same counts, the results for `COc1ccc(CCC[C@@H](C(=O)N2CCCCC2)[C@H](N)C(=O)NO)cc1` [Example 18, (3S-Amino-4-hydroxyamino-2R-(4-methoxy)phenpropyl)succinyl-piperidinamide] are 79 nM, 860 nM, 850 nM and more than 9600 µg/mL.
For the molecule `COc1ccc(CCC[C@@H](C(=O)N2CCN(c3ccccn3)CC2)[C@H](N)C(=O)NO)cc1` [Example 42, (3S-Amino-4-hydroxyamino-2R-(4-methoxy)phenpropyl)succinyl-4-(2-pyridyl)piperazinamide], the figures for the Ki in series [1], in series [2] and in series [3] were 16 nM, 760 nM and 1400 nM, respectively.
In the same order, the values of `CNC(=O)[C@H](Cc1ccccc1)N(C)C(=O)[C@H](CC(C)C)[C@H](N)C(=O)NO` [Example 44, (3S-Amino-4-hydroxyamino-2R-isobutyl)succinyl-N-methyl-N-(1S-methylaminocarbonyl-2-phenyl)ethylamide] are 2.3 nM, 210 nM and 8.9 nM.
In the same order, the values of `CS(=O)(=O)N[C@H](C(=O)NO)[C@@H](CC1CCCC1)C(=O)N1CCN(Cc2ccc3c(c2)OCO3)CC1` [Example 47, (2R-Cyclopentylmethyl-4-hydroxyamino-3S-(methylsulfonyl)amino)succinyl-(4-piperonyl)piperazinamide] are 28 nM, 140 nM and 4.6 nM.
